{"source": "patent US8420012B2", "about": "“Use of monochlorourea to treat industrial waters” (Hercules Incorporated, priority 2009, dated 2013)", "key": {"[1]": {"assay": "Stability in the presence of chlorine demand (0.1× nutrient broth), total chlorine by Hach DPD", "format": "physicochemical", "settings": "5 ppm chlorine", "method": "This can be seen in Table 4 below. 20 mL aliquots of a 0.1× nutrient broth were used and the active species added such that the initial concentration of each was equivalent to 5 ppm chlorine as measured by the Hach. To prepare the nutrient broth Difco Nutrient Broth (8 grams) was dissolved in 1 L of deionized water, and subsequently diluted to 0.1× of the initial concentration prior to being autoclaved at 121° C. for 15 minutes. 100 mL solutions of each of the actives were made, and the concentration was measured using standard Hach test procedures on a BetzDearborn DR 2010 Spectrophotometer. At each time point a 1:10 dilution of the solution in DI water was made and placed in the spectrophotometer cell. Hach Permachem DPD Total Chlorine Reagent was added and the cell was placed into the spectrophotometer. The ppm of Cl2 was measured at 0, 1, 3, 6, 24, and 48 hours. A fresh dilution was made at each time point, if necessary, and the bottles of solution were placed in a shaking incubator at 37° C. in between runs. Dimethyl monochlorourea is notated as DMCU. Bis-hydroxymethyl chlorourea is BHMCU."}, "[2]": {"assay": "Stability in the presence of chlorine demand (0.1× nutrient broth), total chlorine by Hach DPD", "format": "physicochemical", "settings": "72 h, 5 ppm chlorine"}, "Staphylococcus warneri": {"system": "Staphylococcus warneri", "assay": "Log reduction in populations of Staphylococcus warneri (Example 9)", "format": "cell-based", "settings": "S. warneri, 1.5 ppm, average of two", "method": "(§1) N-chloro-N,N′-bishydroxymethylurea can be synthesized in the same manner as N-chloro-N,N′-dimethylurea. The bishydroxyurea (1.0 g, 8.33 mmol) was added to methanol (60 mL) in a 250 mL round bottom flask equipped with a magnetic stir bar without cooling. Another aliquot of methanol (20 mL) was added to a small vial. T-butyl hypochlorite (0.75 mL, 6.66 mmol) was diluted in the vial with methanol, and this solution was subsequently added to the urea solution over a period of less than five minutes. The combined solution was stirred for up to another two hours. The solvent was removed in vacuo, resulting in a colorless and transparent oil that solidified upon prolonged standing. The solid was characterized by ^1H NMR which indicated it was 20-30% N-chloro-N,N′-bishydroxymethylurea."}, "Pseudomonas aeruginosa": {"system": "Pseudomonas aeruginosa", "assay": "Log reduction in populations of Pseudomonas aeruginosa (Example 9)", "format": "cell-based", "settings": "P. aeruginosa, 0.3 ppm, average of two", "method": "as §1"}}}
{"smiles": "O=C(NCO)N(Cl)CO", "note": "[BHMCU, N-chloro-N,N′-bishydroxymethylurea]", "values": [{"measurement": "Stability: total chlorine remaining relative to initial", "setting": "[1]; 0 h", "value": 100, "unit": "%"}, {"measurement": "Stability: total chlorine remaining relative to initial", "setting": "[1]; 1 h", "value": 70, "unit": "%"}, {"measurement": "Stability: total chlorine remaining relative to initial", "setting": "[1]; 3 h", "value": 49, "unit": "%"}, {"measurement": "Stability: total chlorine remaining relative to initial", "setting": "[1]; 6 h", "value": 38, "unit": "%"}, {"measurement": "Stability: total chlorine remaining relative to initial", "setting": "[2]", "value": 3, "unit": "%"}, {"measurement": "Log Reduction", "setting": "Staphylococcus warneri; 1 hr exposure", "value": 6.37}, {"measurement": "Log Reduction", "setting": "Staphylococcus warneri; 2 hr exposure", "value": 6.52}, {"measurement": "Log Reduction", "setting": "Pseudomonas aeruginosa; 1 hr exposure", "value": 3.63}, {"measurement": "Log Reduction", "setting": "Pseudomonas aeruginosa; 2 hr exposure", "value": 6.98}]}
